Biological target: T1, KRAS G12C 1-169, his-tagged protein, GDP-loaded (Homo sapiens, UniProt P01116, G12C)
T1 construct: KRAS G12C 1-169, his-tagged protein, GDP-loaded
Test: Biochemical assay: covalent binding to KRAS G12C analyzed by mass spectrometry
Conditions: compounds 48-246, measured at 2 h
Description: Compounds were tested for activity as follows:
Compounds were diluted to 50× final test concentration in DMSO in 96-well storage plates. […] Reactions were mixed carefully and thoroughly by pipetting up/down with a 200 μl multi-channel pipettor. […] 5 μl of 2% formic acid (Fisher cat#A117) in DI H2O was then added to each well followed by mixing with a pipette. The plate was then resealed with aluminum seal and stored on dry ice until analyzed as described below.
The above described assays were analyzed by mass spectrometry according to the following procedure:
The MS instrument is set to positive polarity, 2 GHz resolution, and low mass (1700) mode and allowed to equilibrate for 30 minutes. The instrument is then calibrated, switched to acquisition mode and the appropriate method loaded.
After another 30 minute equilibration time, a blank batch (i.e., buffer) is run to ensure equipment is operating properly. The samples are thawed at 37° C. for 10 minutes, briefly centrifuged, and transfer to the bench top. Wells A1 and H12 are spiked with 1 μL 500 μM internal standard peptide, and the plates centrifuged at 2000×g for 5 minutes. The method is then run and masses of each individual well recorded.
The masses (for which integration data is desired) for each well are pasted into the platemap and exported from the analysis. Masses for the internal standards are exported as well. The data at 50 ppm is extracted for the +19 charge state, and identity of well A1 is assigned using the internal standard spike and integrated. Peak data is exported as a TOF list and the above steps are repeated individually, for the +20, 21, 22, 23, 24, and 25 charge states.

T1 sequence (P01116 1-169 isoform P01116-2 G12C): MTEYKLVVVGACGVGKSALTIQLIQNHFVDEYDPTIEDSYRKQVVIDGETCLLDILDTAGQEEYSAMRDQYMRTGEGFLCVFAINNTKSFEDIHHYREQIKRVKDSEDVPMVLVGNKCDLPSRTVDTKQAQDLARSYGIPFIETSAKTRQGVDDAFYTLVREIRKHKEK

| Structure (SMILES) | Binding % |
| --- | --- |
| C=CC(=O)N1CCN(c2ncnc3cc(Cl)c(-c4ccccc4)cc23)CC1C#N (stereo not shown) [Compound I-52, 1-acryloyl-4-(7-chloro-6-phenylquinazolin-4-yl)piperazine-2-carbonitrile] | ++++ (++++indicates binding activity greater than 75%) |
| C=CC(=O)N1CCN(c2ncnc3cc(Cl)c(-c4ccc(Cl)cc4)cc23)CC1CC#N (stereo not shown) [Compound I-70, 2-(1-acryloyl-4-(7-chloro-6-(4-chlorophenyl)quinazolin-4-yl)piperazin-2-yl)acetonitrile] | +++ (+++indicates binding activity greater than 50% and up to 75%) |
| C=CC(=O)N1CCN(c2cnnc3cc(-c4c(C)ccc5[nH]ncc45)c(Cl)cc23)CC1 [Compound I-238, 1-(4-(6-chloro-7-(5-methyl-1H-indazol-4-yl)cinnolin-4-yl)piperazin-1-yl)prop-2-en-1-one] | +++ (+++indicates binding activity greater than 50% and up to 75%) |
| C=CC(=O)N1CCN(c2ncnc3cc(-c4cccc5ccc(=O)[nH]c45)c(Cl)cc23)CC1 [Compound I-240, 8-(4-(4-acryloylpiperazin-1-yl)-6-chloroquinazolin-7-yl)quinolin-2(1H)-one] | +++ (+++indicates binding activity greater than 50% and up to 75%) |
| C=CC(=O)N1CCN(c2ncnc3cc(-c4ccccc4C(F)(F)F)ccc23)CC1 [Compound I-157, 1-(4-(7-(2-(trifluoromethyl)phenyl)quinazolin-4-yl)piperazin-1-yl)prop-2-en-1-one] | + (+indicates binding activity from 5% to 25%) |
| C=CC(=O)N1CCN(c2c(C#N)cnc3c(F)c(-c4ccccc4F)c(Cl)cc23)CC1 [Compound I-242, 4-(4-acryloylpiperazin-1-yl)-6-chloro-8-fluoro-7-(2-fluorophenyl)quinoline-3-carbonitrile] | ++++ (++++indicates binding activity greater than 75%) |
| C=CC(=O)N1CCN(c2ncnc3cc(-c4ccc(Cl)cc4)c(Cl)cc23)CC1 [Compound I-78, 1-(4-(6-chloro-7-(4-chlorophenyl)quinazolin-4-yl)piperazin-1-yl)prop-2-en-1-one] | + (+indicates binding activity from 5% to 25%) |
| C=CC(=O)N1CCN(c2ncnc3cc(-c4cc(C(N)=O)ccc4F)c(Cl)cc23)CC1 [Compound I-155, 3-(4-(4-acryloylpiperazin-1-yl)-6-chloroquinazolin-7-yl)-4-fluorobenzamide] | ++ (++indicates binding activity greater than 25% and up to 50%) |
| C=CC(=O)N1CCN(c2ncnc3cc(-c4ccccc4C(N)=O)c(Cl)cc23)CC1 [Compound I-98, 2-(4-(4-acryloylpiperazin-1-yl)-6-chloroquinazolin-7-yl)benzamide] | + (+indicates binding activity from 5% to 25%) |
| C=CC(=O)N1CCN(c2ncnc3cc(-c4cc(NC(C)=O)ccc4F)c(Cl)cc23)CC1 [Compound I-174, N-(3-(4-(4-acryloylpiperazin-1-yl)-6-chloroquinazolin-7-yl)-4-fluorophenyl)acetamide] | ++ (++indicates binding activity greater than 25% and up to 50%) |
| C=CC(=O)N1CCN(c2ncnc3cc(-c4ccccc4C4CC4)c(Cl)cc23)CC1 [Compound I-126, 1-(4-(6-chloro-7-(2-cyclopropylphenyl)quinazolin-4-yl)piperazin-1-yl)prop-2-en-1-one] | ++++ (++++indicates binding activity greater than 75%) |
| C=CC(=O)N1CCN(c2ncnc3cc(-c4cccc(O)c4)c(Cl)cc23)CC1 [Compound I-75, 1-(4-(6-chloro-7-(3-hydroxyphenyl)quinazolin-4-yl)piperazin-1-yl)prop-2-en-1-one] | + (+indicates binding activity from 5% to 25%) |
| C=CC(=O)N1CCN(c2nc(C)nc3cc(-c4ccccc4)c(Cl)cc23)CC1 [Compound I-95, 1-(4-(6-chloro-2-methyl-7-phenylquinazolin-4-yl)piperazin-1-yl)prop-2-en-1-one] | ++ (++indicates binding activity greater than 25% and up to 50%) |
| C=CC(=O)N1CCN(c2ncnc3cc(-c4cccc5cn[nH]c45)c(Cl)cc23)CC1 [Compound I-152, 1-(4-(6-chloro-7-(1H-indazol-7-yl)quinazolin-4-yl)piperazin-1-yl)prop-2-en-1-one] | +++ (+++indicates binding activity greater than 50% and up to 75%) |
| C=CC(=O)N1CCN(c2ncnc3cc(Cl)c(-c4ccc(Cl)cc4)cc23)C[C@H]1C(N)=O [Compound I-54, (S)-1-acryloyl-4-(7-chloro-6-(4-chlorophenyl)quinazolin-4-yl)piperazine-2-carboxamide] | ++ (++indicates binding activity greater than 25% and up to 50%) |
| C=CC(=O)N1CCN(c2ncnc3cc(-c4ccccc4)c(CC)cc23)CC1 [Compound I-93, 1-(4-(6-ethyl-7-phenylquinazolin-4-yl)piperazin-1-yl)prop-2-en-1-one] | + (+indicates binding activity from 5% to 25%) |
| C=CC(=O)N1CCN(c2ncnc3c(Cl)c(-c4ccccc4F)c(Cl)cc23)CC1 [Compound I-210, 1-(4-(6,8-dichloro-7-(2-fluorophenyl)quinazolin-4-yl)piperazin-1-yl)prop-2-en-1-one] | ++++ (++++indicates binding activity greater than 75%) |
| C=CC(=O)N1CCN(c2ncnc3cc(-c4csc5ccccc45)c(Cl)cc23)CC1 [Compound I-198, 1-(4-(7-(benzo[d]thiophen-3-yl)-6-chloroquinazolin-4-yl)piperazin-1-yl)prop-2-en-1-one] | ++++ (++++indicates binding activity greater than 75%) |
| C=CC(=O)N1CCN(c2ncnc3c(F)c(-c4cc(O)ccc4Cl)c(Cl)cc23)CC1 [Compound I-217, 1-(4-(6-chloro-7-(2-chloro-5-hydroxyphenyl)-8-fluoroquinazolin-4-yl)piperazin-1-yl)prop-2-en-1-one] | +++ (+++indicates binding activity greater than 50% and up to 75%) |

Same assay, conditions: compounds 247-342, measured at 30 min

| Structure (SMILES) | Binding % |
| --- | --- |
| C=CC(=O)N1CCN(c2nc(OCCN(C)C)nc3c(F)c(-c4c(C)ccc5[nH]ncc45)c(Cl)cc23)CC1 [Compound 323, 1-(4-(6-chloro-2-(2-(dimethylamino)ethoxy)-8-fluoro-7-(5-methyl-1H-indazol-4-yl)quinazolin-4-yl)piperazin-1-yl)prop-2-en-1-one] | +++ (+++indicates binding activity greater than 50% and up to 75%) |
| C=CC(=O)N1CCN(c2nc(NC)nc3c(F)c(-c4c(C)ccc5[nH]ncc45)c(Cl)cc23)CC1 [Compound I-257, 1-(4-(6-chloro-8-fluoro-7-(5-methyl-1H-indazol-4-yl)-2-(methylamino)quinazolin-4-yl)piperazin-1-yl)prop-2-en-1-one] | ++++ (++++indicates binding activity greater than 75%) |
| CC(C)/C=C(\C#N)C(=O)N1CCN(c2ncnc3c(F)c(-c4c(O)cccc4F)c(Cl)cc23)CC1 [Compound I-282, (E)-2-(4-(6-chloro-8-fluoro-7-(2-fluoro-6-hydroxyphenyl)quinazolin-4-yl)piperazine-1-carbonyl)-4-methylpent-2-enenitrile] | +++ (+++indicates binding activity greater than 50% and up to 75%) |
| C=CC(=O)N1CCN(c2ncnc3c(F)c(-c4c[nH]c5ccccc45)c(Cl)cc23)CC1 [Compound I-288, 1-(4-(6-chloro-8-fluoro-7-(1H-indol-3-yl)quinazolin-4-yl)piperazin-1-yl)prop-2-en-1-one] | ++ (++indicates binding activity greater than 25% and up to 50%) |

Same assay, conditions: determined at 2 hrs

| Structure (SMILES) | Binding % |
| --- | --- |
| C=CC(=O)N1CC(N2CCN(C(=O)CNc3cc(C(C)C)c(Cl)cc3O)CC2)C1 [II-50, 1-(3-(4-(2-(4-Chloro-2-hydroxy-5-isopropylphenylamino)acetyl)piperazin-1-yl)azetidin-1-yl)prop-2-en-1-one] | ++ (++indicates binding activity greater than 20%) |
| C=CC(=O)N1CC(N2CCN(C(=O)CNc3cc(C4CC4(F)F)c(Cl)cc3O)CC2)C1 (stereo not shown) [II-56, 1-(3-(4-((4-chloro-5-(2,2-difluorocyclopropyl)-2-hydroxyphenyl)glycyl)piperazin-1-yl)azetidin-1-yl)prop-2-en-1-one] | ++ (++indicates binding activity greater than 20%) |
| C=CC(=O)N1CC(N2CCN(C(=O)CNc3cc(C4CC4)c(Cl)cc3O)C[C@H]2CO)C1 [II-63, (S)-1-(3-(4-(2-(4-chloro-5-cyclopropyl-2-hydroxyphenyl-amino)acetyl)-2-(hydroxymethyl)-piperazin-1-yl)azetidin-1-yl)prop-2-en-1-one] | ++ (++indicates binding activity greater than 20%) |

Same assay, conditions: determined at 24 hrs

| Structure (SMILES) | Binding % |
| --- | --- |
| C=CC(=O)N1CC(N2CCN(C(=O)CNc3cc(C=O)c(Cl)cc3OC)CC2)C1 [II-46, 5-(2-(4-(1-acryloylazetidin-3-yl)piperazin-1-yl)-2-oxoethylamino)-2-chloro-4-methoxybenzaldehyde] | + (+indicates binding activity from 5% to 15%) |
| C=CC(=O)N1CCC(N2CCN(C(=O)CNc3cc(Cl)c(Cl)cc3O)CC2)C1 (stereo not shown) [II-2, 1-(3-(4-(2-(4,5-dichloro-2-hydroxyphenyl-amino)acetyl)piperazin-1-yl)pyrrolidin-1-yl)prop-2-en-1-one] | +++ (+++indicates binding activity greater than 25% and up to 50%) |

— US10111874B2, “Combination therapies for treatment of cancer” (Araxes Pharma LLC, priority 2014, dated 2018)
